Legend:
JAK1 = JAK1 (Homo sapiens (Human), UniProt P23458); assay: Biochemical JAK1 kinase assay (LanthaScreen)
Outline: (§1)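 GST-JAK + GFP-STAT1 peptide, HEPES pH 7.5/MgCl2/EGTA/Brij-35 buffer; cpd preincubation 1 h RT; ATP start, 1 h RT; stop with 10 mM EDTA + 2 nM Tb-anti-pSTAT1; TR-FRET 520/495. 4-parameter IC50 → pKi (Cheng-Prusoff).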

JAK2 = JAK2 (Homo sapiens (Human), UniProt O60674); assay: Biochemical JAK2 kinase assay (LanthaScreen)
Outline: as §1

JAK3 = JAK3 (Homo sapiens (Human), UniProt P52333); assay: Biochemical JAK3 kinase assay (LanthaScreen); conditions: for JAK3 (pKi)-JAK1 (pKi): selectivity JAK3 over JAK1, difference of pKi
Chain of JAK3 (P52333 whole entry): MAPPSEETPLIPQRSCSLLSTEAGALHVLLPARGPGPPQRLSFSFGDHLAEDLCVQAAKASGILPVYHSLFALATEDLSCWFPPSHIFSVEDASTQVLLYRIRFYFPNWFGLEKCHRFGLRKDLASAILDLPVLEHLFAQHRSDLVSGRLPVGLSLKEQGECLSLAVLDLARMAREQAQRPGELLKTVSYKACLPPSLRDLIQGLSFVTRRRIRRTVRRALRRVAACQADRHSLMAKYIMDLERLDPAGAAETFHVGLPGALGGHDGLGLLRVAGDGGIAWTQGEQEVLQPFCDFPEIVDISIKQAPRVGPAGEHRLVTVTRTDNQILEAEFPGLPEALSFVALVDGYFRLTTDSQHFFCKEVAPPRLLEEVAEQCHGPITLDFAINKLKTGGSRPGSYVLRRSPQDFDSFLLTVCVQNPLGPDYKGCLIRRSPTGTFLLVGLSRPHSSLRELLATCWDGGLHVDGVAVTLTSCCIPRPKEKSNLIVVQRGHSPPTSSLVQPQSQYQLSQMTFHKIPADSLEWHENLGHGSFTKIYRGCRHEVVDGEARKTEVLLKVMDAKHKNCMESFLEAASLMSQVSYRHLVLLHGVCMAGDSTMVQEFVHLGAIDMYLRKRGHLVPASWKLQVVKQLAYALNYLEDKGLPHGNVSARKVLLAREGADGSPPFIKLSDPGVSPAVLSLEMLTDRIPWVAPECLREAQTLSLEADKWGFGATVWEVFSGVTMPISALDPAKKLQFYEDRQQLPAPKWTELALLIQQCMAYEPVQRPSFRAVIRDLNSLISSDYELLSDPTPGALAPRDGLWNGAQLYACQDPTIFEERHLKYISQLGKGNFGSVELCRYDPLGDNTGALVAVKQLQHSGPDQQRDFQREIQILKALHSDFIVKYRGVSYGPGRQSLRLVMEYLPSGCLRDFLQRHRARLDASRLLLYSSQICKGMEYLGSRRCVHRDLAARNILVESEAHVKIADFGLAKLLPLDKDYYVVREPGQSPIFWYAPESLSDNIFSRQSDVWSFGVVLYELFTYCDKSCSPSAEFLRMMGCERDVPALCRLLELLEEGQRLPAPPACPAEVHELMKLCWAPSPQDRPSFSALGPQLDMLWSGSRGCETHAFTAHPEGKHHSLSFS
Outline: as §1

Tyk2 = Tyk2 (Homo sapiens (Human), UniProt P29597); assay: Biochemical Tyk2 kinase assay (LanthaScreen)
Chain of Tyk2 (P29597 whole entry): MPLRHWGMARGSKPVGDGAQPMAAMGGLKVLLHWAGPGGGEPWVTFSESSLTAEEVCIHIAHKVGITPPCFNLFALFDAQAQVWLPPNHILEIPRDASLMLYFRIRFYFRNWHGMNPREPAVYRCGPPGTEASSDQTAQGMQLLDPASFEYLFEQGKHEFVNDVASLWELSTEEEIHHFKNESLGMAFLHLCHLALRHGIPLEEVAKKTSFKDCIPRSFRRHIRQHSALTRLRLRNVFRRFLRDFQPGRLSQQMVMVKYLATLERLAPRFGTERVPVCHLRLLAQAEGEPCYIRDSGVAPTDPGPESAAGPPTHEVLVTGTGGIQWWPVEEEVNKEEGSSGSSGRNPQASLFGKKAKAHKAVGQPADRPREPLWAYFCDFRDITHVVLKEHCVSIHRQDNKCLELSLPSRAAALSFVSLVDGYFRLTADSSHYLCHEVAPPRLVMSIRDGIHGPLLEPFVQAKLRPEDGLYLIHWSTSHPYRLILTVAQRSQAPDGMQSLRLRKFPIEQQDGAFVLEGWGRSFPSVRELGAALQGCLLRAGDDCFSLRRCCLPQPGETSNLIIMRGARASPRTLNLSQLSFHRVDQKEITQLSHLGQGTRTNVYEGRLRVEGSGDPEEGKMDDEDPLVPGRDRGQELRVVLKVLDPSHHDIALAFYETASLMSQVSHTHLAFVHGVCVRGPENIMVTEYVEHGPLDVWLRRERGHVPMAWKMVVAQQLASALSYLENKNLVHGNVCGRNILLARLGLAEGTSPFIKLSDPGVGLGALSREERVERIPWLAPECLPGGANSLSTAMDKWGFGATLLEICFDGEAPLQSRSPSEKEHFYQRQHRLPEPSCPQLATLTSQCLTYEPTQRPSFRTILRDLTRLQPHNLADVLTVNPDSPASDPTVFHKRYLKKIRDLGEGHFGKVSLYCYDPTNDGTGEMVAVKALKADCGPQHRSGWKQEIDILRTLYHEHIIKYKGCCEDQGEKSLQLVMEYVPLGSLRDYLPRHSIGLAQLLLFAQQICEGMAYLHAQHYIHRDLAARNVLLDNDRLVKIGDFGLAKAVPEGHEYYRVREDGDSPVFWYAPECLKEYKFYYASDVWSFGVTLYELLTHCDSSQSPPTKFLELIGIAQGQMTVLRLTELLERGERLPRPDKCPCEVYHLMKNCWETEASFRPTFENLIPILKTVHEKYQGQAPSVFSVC
Outline: as §1

[1] = system: IL-2 stimulated STAT5 phosphorylation in Tall-1 human T cell line (JAK3); assay: Cellular JAK3 potency assay: inhibition of IL-2 stimulated pSTAT5 in Tall-1 T cells; assay type: cell-based; conditions: IL-2 stimulated pSTAT5, Tall-1 T cells
Outline: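 AlphaLISA SureFire Ultra measures STAT5 Tyr694/699 phosphorylation in lysed Tall-1 human T cells. Cells were exposed to compound for 1 h at 37 °C before a 30 min IL-2 challenge (300 ng/ml final). Values are pIC50 means with standard deviation from signal-versus-concentration curves.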

Caco-2 cell monolayers = assay: Caco-2 permeation assay; assay type: in vitro ADME; conditions: 5 μM, A-B direction, with Verapamil (25 μM)
Outline: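 Passive A-to-B permeability with P-gp inhibited by verapamil (25 μM); compound at 5 μM, n=2. Both compartments sampled at t0 and t120 and quantified by LC-MS/MS, giving apparent permeability in cm/sec from flux, area and concentration.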

Chain of JAK1 (P23458 whole entry): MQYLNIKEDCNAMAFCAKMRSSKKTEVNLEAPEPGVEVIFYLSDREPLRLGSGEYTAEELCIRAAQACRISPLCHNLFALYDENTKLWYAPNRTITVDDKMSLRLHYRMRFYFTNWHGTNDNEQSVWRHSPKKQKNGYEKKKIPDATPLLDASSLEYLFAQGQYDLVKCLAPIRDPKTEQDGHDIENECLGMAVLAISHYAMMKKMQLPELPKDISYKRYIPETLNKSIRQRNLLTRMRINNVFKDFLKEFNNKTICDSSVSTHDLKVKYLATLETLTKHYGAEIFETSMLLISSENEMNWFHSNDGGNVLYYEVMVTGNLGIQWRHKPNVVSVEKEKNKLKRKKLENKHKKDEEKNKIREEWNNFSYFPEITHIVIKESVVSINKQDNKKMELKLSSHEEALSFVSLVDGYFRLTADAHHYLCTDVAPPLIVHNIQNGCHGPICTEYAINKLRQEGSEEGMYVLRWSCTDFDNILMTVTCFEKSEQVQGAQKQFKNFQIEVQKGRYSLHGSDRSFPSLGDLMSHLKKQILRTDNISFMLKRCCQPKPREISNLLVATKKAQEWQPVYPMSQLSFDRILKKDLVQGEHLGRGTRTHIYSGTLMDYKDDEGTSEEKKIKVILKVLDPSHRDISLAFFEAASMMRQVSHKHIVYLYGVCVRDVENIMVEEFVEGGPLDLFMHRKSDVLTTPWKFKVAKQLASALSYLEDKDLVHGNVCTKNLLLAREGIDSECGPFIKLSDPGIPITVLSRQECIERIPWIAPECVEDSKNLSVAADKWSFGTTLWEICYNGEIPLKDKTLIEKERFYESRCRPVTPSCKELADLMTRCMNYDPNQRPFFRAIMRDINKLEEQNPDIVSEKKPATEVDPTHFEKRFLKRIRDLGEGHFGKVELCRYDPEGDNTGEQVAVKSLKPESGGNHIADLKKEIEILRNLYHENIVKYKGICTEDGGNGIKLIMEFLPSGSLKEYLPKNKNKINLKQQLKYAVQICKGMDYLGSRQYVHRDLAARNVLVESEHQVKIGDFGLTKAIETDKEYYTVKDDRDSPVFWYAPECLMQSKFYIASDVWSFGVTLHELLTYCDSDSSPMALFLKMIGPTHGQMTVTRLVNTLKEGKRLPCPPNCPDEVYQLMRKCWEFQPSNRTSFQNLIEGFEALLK
Chain of JAK2 (O60674 whole entry): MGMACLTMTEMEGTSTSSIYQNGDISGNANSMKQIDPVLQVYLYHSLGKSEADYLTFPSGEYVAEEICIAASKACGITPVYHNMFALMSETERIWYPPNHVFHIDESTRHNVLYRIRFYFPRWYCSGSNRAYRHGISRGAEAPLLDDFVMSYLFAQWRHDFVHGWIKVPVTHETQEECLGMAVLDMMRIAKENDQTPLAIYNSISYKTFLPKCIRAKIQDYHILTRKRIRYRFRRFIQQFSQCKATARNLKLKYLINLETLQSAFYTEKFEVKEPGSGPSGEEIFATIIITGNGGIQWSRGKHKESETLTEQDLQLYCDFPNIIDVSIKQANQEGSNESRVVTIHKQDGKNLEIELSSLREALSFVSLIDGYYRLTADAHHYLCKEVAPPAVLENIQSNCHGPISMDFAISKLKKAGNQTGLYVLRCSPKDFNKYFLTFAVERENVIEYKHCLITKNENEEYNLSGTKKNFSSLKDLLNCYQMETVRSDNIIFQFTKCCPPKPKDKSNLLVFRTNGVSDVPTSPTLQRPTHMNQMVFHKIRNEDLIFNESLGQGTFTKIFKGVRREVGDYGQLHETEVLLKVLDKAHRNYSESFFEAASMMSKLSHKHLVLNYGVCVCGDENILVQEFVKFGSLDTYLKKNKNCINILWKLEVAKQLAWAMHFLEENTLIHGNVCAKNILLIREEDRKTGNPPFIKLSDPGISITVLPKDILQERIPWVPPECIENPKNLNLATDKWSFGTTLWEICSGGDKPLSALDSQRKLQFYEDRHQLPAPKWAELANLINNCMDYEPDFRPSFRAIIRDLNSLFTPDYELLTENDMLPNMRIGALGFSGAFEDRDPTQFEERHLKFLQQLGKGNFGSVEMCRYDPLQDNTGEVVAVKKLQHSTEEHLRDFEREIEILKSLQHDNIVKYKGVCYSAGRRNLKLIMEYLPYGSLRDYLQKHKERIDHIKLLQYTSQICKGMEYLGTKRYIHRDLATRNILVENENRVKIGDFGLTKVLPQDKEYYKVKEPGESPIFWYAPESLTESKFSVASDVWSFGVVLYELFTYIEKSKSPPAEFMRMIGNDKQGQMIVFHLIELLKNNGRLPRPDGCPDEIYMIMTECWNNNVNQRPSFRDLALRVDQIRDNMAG

Compound | JAK 1 (pKi) (JAK1) | JAK 2 (pKi) (JAK2) | JAK 3 (pKi) (JAK3) | JAK3 (pKi)-JAK1 (pKi) (JAK3) | Tyk 2 (pKi) (Tyk2) | Tall-1 (pIC50) [1] | Caco Kp (Caco-2 cell monolayers)
C=CC(=O)N1CC(CCn2c(=O)ccc3cnc(Nc4ccc(N5CCC(F)(F)CC5)cc4)nc32)C1 [Example 157] | E (E represents a pKi value of 7 or below (Ki of 100 nM or above)) | E (E represents a pKi value of 7 or below (Ki of 100 nM or above)) | A (A represents a pKi value≥10 (Ki≤0.1 nM)) | A (A represents a value of 3 or above) | E (E represents a pKi value of 7 or below (Ki of 100 nM or above)) | B (B represents a pC50 value between 6.7 (included) and 7.5 (IC50 between 200 nM and 32 nM)) | C (C represents a value between 10×10^−6 and 30×10^−6 cm/sec)
C=CC(=O)N1CC(CCn2c(=O)ccc3cnc(Nc4cccc(N5CCN(C(C)=O)CC5)c4)nc32)C1 [Example 78] | E (E represents a pKi value of 7 or below (Ki of 100 nM or above)) | E (E represents a pKi value of 7 or below (Ki of 100 nM or above)) | B (B represents pKi value between 9 and 10 (Ki between 1 nM and 0.1 nM)) | A (A represents a value of 3 or above) | E (E represents a pKi value of 7 or below (Ki of 100 nM or above)) | B (B represents a pC50 value between 6.7 (included) and 7.5 (IC50 between 200 nM and 32 nM)) | A (A represents a value below 5×10^−6 cm/sec)
C=CC(=O)N1CCN(CCn2c(=O)ccc3cnc(Nc4ccc(N5CCN(C(C)CC)CC5)cc4)nc32)CC1 (stereo not shown) [Example 206] | E (E represents a pKi value of 7 or below (Ki of 100 nM or above)) | E (E represents a pKi value of 7 or below (Ki of 100 nM or above)) | A (A represents a pKi value≥10 (Ki≤0.1 nM)) | A (A represents a value of 3 or above) | E (E represents a pKi value of 7 or below (Ki of 100 nM or above)) | A (A represents a pIC50 value≥7.5 (IC50≤32 nM)) | C (C represents a value between 10×10^−6 and 30×10^−6 cm/sec)
C=CC(=O)N1CC(CCn2c(=O)ccc3cnc(Nc4ccc(N5CCN(C(=O)[C@H](C)O)CC5)cc4)nc32)C1 [Example 106] | E (E represents a pKi value of 7 or below (Ki of 100 nM or above)) | E (E represents a pKi value of 7 or below (Ki of 100 nM or above)) | A (A represents a pKi value≥10 (Ki≤0.1 nM)) | A (A represents a value of 3 or above) | E (E represents a pKi value of 7 or below (Ki of 100 nM or above)) | B (B represents a pC50 value between 6.7 (included) and 7.5 (IC50 between 200 nM and 32 nM)) | A (A represents a value below 5×10^−6 cm/sec)
C=CC(=O)N1CC(CCn2c(=O)ccc3cnc(Nc4ccc(N5CCN(C(=O)OC(C)C)CC5)cc4)nc32)C1 [Example 100] | E (E represents a pKi value of 7 or below (Ki of 100 nM or above)) | E (E represents a pKi value of 7 or below (Ki of 100 nM or above)) | A (A represents a pKi value≥10 (Ki≤0.1 nM)) | A (A represents a value of 3 or above) | E (E represents a pKi value of 7 or below (Ki of 100 nM or above)) | A (A represents a pIC50 value≥7.5 (IC50≤32 nM)) | A (A represents a value below 5×10^−6 cm/sec)
C=CC(=O)N1CC(CCn2c(=O)ccc3cnc(Nc4cnn(C5CCN(C)CC5)c4)nc32)C1 [Example 51] | E (E represents a pKi value of 7 or below (Ki of 100 nM or above)) | E (E represents a pKi value of 7 or below (Ki of 100 nM or above)) | B (B represents pKi value between 9 and 10 (Ki between 1 nM and 0.1 nM)) | A (A represents a value of 3 or above) | E (E represents a pKi value of 7 or below (Ki of 100 nM or above)) | B (B represents a pC50 value between 6.7 (included) and 7.5 (IC50 between 200 nM and 32 nM)) | A (A represents a value below 5×10^−6 cm/sec)
C=CC(=O)N1CCN(CCn2c(=O)ccc3cnc(Nc4ccc(N5CCN(CCCOC)CC5)cc4)nc32)CC1 [Example 207] | E (E represents a pKi value of 7 or below (Ki of 100 nM or above)) | E (E represents a pKi value of 7 or below (Ki of 100 nM or above)) | B (B represents pKi value between 9 and 10 (Ki between 1 nM and 0.1 nM)) | A (A represents a value of 3 or above) | E (E represents a pKi value of 7 or below (Ki of 100 nM or above)) | B (B represents a pC50 value between 6.7 (included) and 7.5 (IC50 between 200 nM and 32 nM)) | B (B represents a value between 5×10^−6 and 10×10^−6 cm/sec)
C=CC(=O)N1CCN(CCn2c(=O)ccc3cnc(Nc4cnn(C)c4)nc32)[C@@H](C)C1 [Example 30] | E (E represents a pKi value of 7 or below (Ki of 100 nM or above)) | E (E represents a pKi value of 7 or below (Ki of 100 nM or above)) | A (A represents a pKi value≥10 (Ki≤0.1 nM)) | A (A represents a value of 3 or above) | E (E represents a pKi value of 7 or below (Ki of 100 nM or above)) | B (B represents a pC50 value between 6.7 (included) and 7.5 (IC50 between 200 nM and 32 nM)) | A (A represents a value below 5×10^−6 cm/sec)
C=CC(=O)N1CC(CCn2c(=O)ccc3cnc(Nc4ccc(N5CCN(C(=O)SC(C)(C)C)CC5)cc4)nc32)C1 [Example 98] | E (E represents a pKi value of 7 or below (Ki of 100 nM or above)) | E (E represents a pKi value of 7 or below (Ki of 100 nM or above)) | A (A represents a pKi value≥10 (Ki≤0.1 nM)) | A (A represents a value of 3 or above) | E (E represents a pKi value of 7 or below (Ki of 100 nM or above)) | B (B represents a pC50 value between 6.7 (included) and 7.5 (IC50 between 200 nM and 32 nM)) | A (A represents a value below 5×10^−6 cm/sec)
C=CC(=O)N1CCN(CCn2c(=O)ccc3cnc(Nc4cnn(C5CCOCC5)c4)nc32)[C@@H](CC)C1 [Example 197] | E (E represents a pKi value of 7 or below (Ki of 100 nM or above)) | E (E represents a pKi value of 7 or below (Ki of 100 nM or above)) | B (B represents pKi value between 9 and 10 (Ki between 1 nM and 0.1 nM)) | A (A represents a value of 3 or above) | E (E represents a pKi value of 7 or below (Ki of 100 nM or above)) | B (B represents a pC50 value between 6.7 (included) and 7.5 (IC50 between 200 nM and 32 nM)) | A (A represents a value below 5×10^−6 cm/sec)
C=CC(=O)N1CC(CCn2c(=O)ccc3cnc(Nc4cccc(N5CCN(C(=O)N(C)C)CC5)c4)nc32)C1 [Example 124] | E (E represents a pKi value of 7 or below (Ki of 100 nM or above)) | E (E represents a pKi value of 7 or below (Ki of 100 nM or above)) | A (A represents a pKi value≥10 (Ki≤0.1 nM)) | A (A represents a value of 3 or above) | E (E represents a pKi value of 7 or below (Ki of 100 nM or above)) | B (B represents a pC50 value between 6.7 (included) and 7.5 (IC50 between 200 nM and 32 nM)) | B (B represents a value between 5×10^−6 and 10×10^−6 cm/sec)
C=CC(=O)N1CCN(CCn2c(=O)ccc3cnc(Nc4cnn(CCF)c4)nc32)[C@@H](CC)C1 [Example 202] | E (E represents a pKi value of 7 or below (Ki of 100 nM or above)) | E (E represents a pKi value of 7 or below (Ki of 100 nM or above)) | B (B represents pKi value between 9 and 10 (Ki between 1 nM and 0.1 nM)) | A (A represents a value of 3 or above) | E (E represents a pKi value of 7 or below (Ki of 100 nM or above)) | B (B represents a pC50 value between 6.7 (included) and 7.5 (IC50 between 200 nM and 32 nM)) | A (A represents a value below 5×10^−6 cm/sec)
C=CC(=O)N1CC(CCn2c(=O)ccc3cnc(Nc4cnn(CCOC(F)F)c4)nc32)C1 [Example 25] | E (E represents a pKi value of 7 or below (Ki of 100 nM or above)) | E (E represents a pKi value of 7 or below (Ki of 100 nM or above)) | B (B represents pKi value between 9 and 10 (Ki between 1 nM and 0.1 nM)) | A (A represents a value of 3 or above) | E (E represents a pKi value of 7 or below (Ki of 100 nM or above)) | C (C represents a pIC50 value between 6 and 6.7 (IC50 between 1 μM and 200 nM)) | B (B represents a value between 5×10^−6 and 10×10^−6 cm/sec)
